Measured values from publication PMC7308271, “Discovery of a new class of orthosteric antagonists with nanomolar potency at extrasynaptic GABAA receptors” (Scientific Reports, 2020).
“Also recorded” adds a separate entry of the source.

What was measured:
[1] = test system: α1,2,6 GABAΑ receptors; assay: FMP assay, α1,2,6 receptors (summary); type: cell-based, human; conditions: range over subtypes; read-out: potency (IC50) at α1,2,6 receptors
Protocol: HEK293 cells were maintained in DMEM containing GlutaMAX-I, supplemented with 10% FBS and 1% penicillin-streptomycin and incubated at 37 °C and a humidity of 5% CO2. For expression of δ-containing GABAΑ receptors, a HEK293 Flp-In^ΤΜ cell line stably expressing the human GABAΑ δ-subunits (referred to as δ-HEK) was used and the γ-containing subtypes was expressed in a background HEK293 Flp-In^ΤΜ cell line stably expressing the G-protein coupled peptide receptor NPBWR2 (referred to as HEK background)[26], both positively selected for using 200 μg/mL hygromycin B. α1β2γ2 receptors were stably expressed in a HEK293 cell line maintained as above but with no selection (gift from Marianne L. Jensen, Neurosearch). […]
The FMP assay was performed as previously described with a few modifications. […] Data was obtained as changes in fluorescence units (∆RFU) by measuring emission at 560 nm caused by excitation at 530 nm. […]
Data obtained in the FMP assay are given as relative changes in fluorescence units (ΔRFU) by subtracting the average of the baseline fluorescence signal from the peak fluorescence signal after compound addition. […]

[2] = biological target: T1, human α4β1δ receptors in δ-HEK cells (Homo sapiens, UniProt P18505+P48169); assay: Whole-cell patch-clamp electrophysiology, concentration-response; type: cell-based
T1 construct: expressed in transfected cells; host or cells: δ-HEK (HEK293 Flp-In stably expressing human δ), transiently transfected with α4 and β1 1:1
T1 sequence (P48169 36-554): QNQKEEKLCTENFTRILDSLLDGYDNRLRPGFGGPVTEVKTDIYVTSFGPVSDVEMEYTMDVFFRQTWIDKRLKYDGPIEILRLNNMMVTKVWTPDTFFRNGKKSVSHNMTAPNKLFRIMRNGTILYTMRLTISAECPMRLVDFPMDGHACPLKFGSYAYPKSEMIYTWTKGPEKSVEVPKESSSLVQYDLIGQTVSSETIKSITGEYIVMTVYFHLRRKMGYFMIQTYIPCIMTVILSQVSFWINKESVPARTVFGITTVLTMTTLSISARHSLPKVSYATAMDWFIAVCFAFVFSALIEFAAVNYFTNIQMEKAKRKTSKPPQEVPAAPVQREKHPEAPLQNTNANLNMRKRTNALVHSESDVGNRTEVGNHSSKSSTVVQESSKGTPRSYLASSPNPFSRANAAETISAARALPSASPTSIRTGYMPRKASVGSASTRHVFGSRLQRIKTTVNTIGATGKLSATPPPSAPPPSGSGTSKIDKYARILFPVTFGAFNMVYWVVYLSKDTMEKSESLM
T1 sequence (P18505 26-474): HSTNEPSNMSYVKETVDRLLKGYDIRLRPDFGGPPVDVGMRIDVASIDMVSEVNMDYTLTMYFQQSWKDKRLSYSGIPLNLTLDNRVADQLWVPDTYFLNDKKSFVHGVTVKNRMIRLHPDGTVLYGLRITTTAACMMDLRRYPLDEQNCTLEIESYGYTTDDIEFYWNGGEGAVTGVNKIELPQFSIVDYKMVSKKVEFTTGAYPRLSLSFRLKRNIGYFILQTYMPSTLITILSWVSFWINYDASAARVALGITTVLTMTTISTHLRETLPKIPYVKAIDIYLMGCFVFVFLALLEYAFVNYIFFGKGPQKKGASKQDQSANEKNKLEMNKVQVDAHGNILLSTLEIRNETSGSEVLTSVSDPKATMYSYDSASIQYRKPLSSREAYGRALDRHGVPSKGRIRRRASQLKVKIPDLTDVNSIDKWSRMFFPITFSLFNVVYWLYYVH
T1 sequence (O14764 25-452 partner): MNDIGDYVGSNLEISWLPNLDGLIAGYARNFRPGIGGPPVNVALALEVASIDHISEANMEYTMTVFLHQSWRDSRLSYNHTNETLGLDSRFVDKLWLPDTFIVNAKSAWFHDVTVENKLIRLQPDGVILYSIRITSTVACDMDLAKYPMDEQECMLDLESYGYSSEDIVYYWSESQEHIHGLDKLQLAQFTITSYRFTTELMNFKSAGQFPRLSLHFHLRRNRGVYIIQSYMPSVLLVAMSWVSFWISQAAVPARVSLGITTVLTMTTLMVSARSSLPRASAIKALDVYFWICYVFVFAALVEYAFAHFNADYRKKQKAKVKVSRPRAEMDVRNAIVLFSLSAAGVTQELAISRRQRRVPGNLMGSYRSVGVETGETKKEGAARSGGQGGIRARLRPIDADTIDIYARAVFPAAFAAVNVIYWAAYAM
Text: (§1) To express recombinant GABAΑ receptors human α1, α2, α3, α5, α6, β2, γ2 (pcDNA3.1/Zeo) and α4, β1 (pUNIV)[26] subunit cDNA were transiently transfected into either δ-HEK or HEK background cells. δ-HEK cells were transfected with α- and β-subunits in a 1:1 ration whereas HEK background cells were transfected with α-, β- and γ-subunits in a 1:1:2 ratio. Human BGT1 (pcDNA5/FRT)[43] was transiently transfected into the δ-HEK cell line. δ-HEK cells transfected for whole-cell patch-clamp recordings were co-transfected with green fluorescent protein (GFP) as well as α- and β-subunits in a 0.5:1:1 ratio (0.8 μg + 1.6 μg + 1.6 μg in a 6 cm dish) in order to identify transfected cells. The transfection was carried out using Polyfect as transfection reagent according to the manufactures protocol expect for using half the recommended volume of Polyfect.

[3] = biological target: T2, human BGT1 (Homo sapiens, UniProt P48065); assay: Fluorescence interference control: BGT1-mediated GABA uptake in the FMP assay; type: cell-based; conditions: 110 μM GABA uptake by BGT1 in δ-HEK cells; 2027 at 30, 10, 3 μM
T2 construct: expressed in transfected cells; host or cells: δ-HEK cells, transient transfection (pcDNA5/FRT)
T2 sequence (P48065 1-614): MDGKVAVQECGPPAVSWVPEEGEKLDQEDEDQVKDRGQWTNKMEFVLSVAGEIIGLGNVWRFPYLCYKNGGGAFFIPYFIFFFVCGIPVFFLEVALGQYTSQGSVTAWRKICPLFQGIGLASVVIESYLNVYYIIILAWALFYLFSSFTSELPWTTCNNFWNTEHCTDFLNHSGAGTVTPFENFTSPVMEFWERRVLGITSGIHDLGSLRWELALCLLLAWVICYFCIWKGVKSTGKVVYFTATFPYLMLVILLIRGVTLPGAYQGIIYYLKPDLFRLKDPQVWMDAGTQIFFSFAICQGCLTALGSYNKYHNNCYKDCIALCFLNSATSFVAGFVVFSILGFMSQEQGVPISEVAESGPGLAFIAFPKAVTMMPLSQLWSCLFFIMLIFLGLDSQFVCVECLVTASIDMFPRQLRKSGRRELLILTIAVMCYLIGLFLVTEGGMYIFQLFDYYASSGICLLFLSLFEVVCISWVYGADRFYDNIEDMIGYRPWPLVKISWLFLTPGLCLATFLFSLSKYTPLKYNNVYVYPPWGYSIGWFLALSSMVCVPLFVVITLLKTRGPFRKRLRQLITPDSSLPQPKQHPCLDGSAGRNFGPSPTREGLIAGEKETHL
Text: as §1
assay (perf ormed essentially as previously described in methods section and based on Al-Khawaja et al.).
in d-HEK cells was not decreased/quenched by 2027 in any of the tested concentrations. Data are shown as
means ± SD f rom a representative expe riment perf orme d in triplicate (n=2).
BGT1 expressed in HEK-δ cells

Row | SMILES | IC50 [1] [nM] | IC50 [2] [nM] | potency in patch-clamp relative to FMP assay ([2]; α4β1δ) [times] | interference with / quenching of the fluorescence signal [3]
1 | O=C(Nc1cccc(C(=O)N2CCC3(CCNCC3)CC2)c1)c1cccs1 [compound 018, N-(3-(3,9-diazaspiro[5.5]undecane-3-carbonyl)phenyl)thiophene-2-carboxamide] | 240 to 790 | 10.8 | 9 | –
2 | CC(=O)Nc1cccc(C(=O)N2CCC3(CCNCC3)CC2)c1 [compound 2027, N-(3-(3,9-diazaspiro[5.5]undecane-3-carbonyl)phenyl)acetamide] | – | – | – | does not quench; also recorded: do not interfere
